Read-outs that look alike come from different tables or passages of the source. Blank lines part the entries; values can stand above or below the compound they belong to.
Experiments:
[1] = Drug stability in simulated gastric fluid (SGF), HPLC; conditions: for stability in SGF: SGF pH ~1.2, 37 °C, 24 h, salt forms
Procedure: To determine drug stability at low pH, the drugs were dissolved in methanol to form a concentrated stock solution. Methanol solutions were then diluted 20-fold in simulated gastric fluid, USP without pepsin (pH ~1.2; henceforth referred to as SGF). Drug solutions were then placed in a shaker incubator (New Brunswick™ Innova® 44, Eppendorf, USA) at 37 °C and 150 r.p.m. At various times, aliquots were withdrawn and stored at −20 °C until analysis. Drug concentrations in the solution were analysed using HPLC and reported as percent of the initial concentrations.
The output signal was monitored and processed using ChemStation® software (Agilent Technologies Inc., USA). Chromatographic separation was carried out on a 50 mm × 4.6 mm EC-C18 Agilent Poroshell 120 analytical column with 2.7 µm spherical particles.
The injection volume was 5 µL, and the UV detection wavelength of 260 nm was selected.
For RPV, the stationary phase was maintained at 40 °C. The mobile phase consisted of methanol: water (pH 3.5 adjusted with 0.1% formic acid) (43:57 v/v) at a flow rate of 0.9 mL/min over a 10 min run time. The injection volume was 20 µL, and the UV detector was set at 290 nm.
For CAB, the column was maintained at 45 °C and the optimized mobile phase consisted of acetonitrile: water (pH 3.5 adjusted with 0.1% formic acid) (30:70 v/v) at flow rate of 0.8 mL/min over an 8 min run time. For analysis, 5 µL of the sample was injected on to the column, and the samples were analysed at a wavelength of 260 nm.
For tenofovir alafenamide, the column was maintained at 22 °C. The mobile phase consisted initially of acetonitrile: water (pH 3.5 adjusted with 0.1% formic acid) (100:0 v/v). […] The flow rate was 0.6 mL/min and the run time was 8 min. The injection volume was 10 µL, and the UV detection wavelength of 260 nm was selected.

[2] = Drug stability at high temperature (150 °C, 2 h), HPLC; type: physicochemical; conditions: 150 °C for 2 h
Procedure: To determine the drug stability at high temperatures, the drug was weighed in a 20 mL glass vial, and placed in a convection oven at 150 °C for 2 h. Drug was dissolved in methanol, and the concentration was compared to that of an unheated standard of the same initial concentration via HPLC.

[3] = Plasma pharmacokinetics of immediate release and gastric resident dosage forms in pigs; type: in vivo, Yorkshire pigs; conditions: for Tmax: female, Yorkshire, pig, plasma, oral, post-dose, read-out: time of maximum plasma concentration (converted); for duration of sustained drug concentrations: single dose
Procedure: All animal experiments were approved by the Committee on Animal Care at the Massachusetts Institute of Technology. In vivo pharmacokinetics were evaluated in an unblinded fashion in female Yorkshire pigs (50–95 kg) that were randomly assigned to the immediate release or sustained release groups. Animals were fed daily in the morning and in the evening with a diet consisting of pellets (Laboratory mini-pig growler diet, 5081), with a midday snack consisting of various fruits and vegetables. Specifically, the pellets were 5/32” x ¼” length, and consisted of ground oats, alfalfa meal, wheat middlings, soybean meal, dried beet pulp, salts and other micronutrients.
To determine the oral pharmacokinetics of immediate release dosage forms of DTG and CAB, 50 mg of DTG and 30 mg of CAB were weighed and filled into gelatine capsules. For RPV pharmacokinetics, RPV base was dissolved in poly(ethylene glycol) (molecular weight—400 Da) containing 10-fold molar excess of citric acid. The concentration of RPV base in this solution was 5 mg/mL and 5 mL of the solution was dosed in a gelatine capsule. […] To determine oral pharmacokinetics from gastric retentive dosage forms, the arms of dosage forms (2–3/pig containing 350 mg DTG, 175 mg RPV or 210 mg CAB) were folded into capsule shells immediately prior to dosing. […]. The capsules containing drug or dosage form were delivered into the intestine or stomach respectively. At various time points, blood samples (0.5 mL) were collected from a central line connected to the external jugular vein or from a mammary vein into […] Vacutainer gold top tubes (Becton, Dickinson and Co. USA). Plasma samples were separated from blood by centrifugation (1800g, 10 min at 4 °C) and were stored at −80 °C. Atropine can reduce gastric acid production and gastric motility which may affect the overall drug pharmacokinetics and the gastric retention of the dosage form. […]. Drug concentrations in the plasma were analysed using UPLC-MS/MS. Plasma samples (100 µL) were spiked with 200 µL acetonitrile solution of 250 µg/mL maraviroc (internal standard) to cause precipitation. Samples were vortexed and sonicated for 10–20 min and then centrifuged (21130g, 10 min). Two hundred microliters of solution were pipetted into a 96-well plate containing 200 µL of nanopure water. Finally, 2.5 μL was injected onto the UPLC–ESI–MS system for analysis.
UPLC separation was carried out on a Waters® UPLC aligned with a Waters® Xevo–TQ-SMS mass spectrometer (Waters Ltd., UK). MassLynx® 4.1 software was used for data acquisition and analysis. Liquid chromatography separation was performed on an Acquity® UPLC CSH C18 (50 × 2.1 mm, 1.7 μm particle size) column at 50 °C. The mobile phase consisted of acetonitrile spiked with 0.1% formic acid and 10 mM ammonium formate solution. The mobile phase was flowed at a rate of 0.6 mL/min using a time and solvent gradient composition. The initial composition (100% aqueous) was held for 1 min, following which the composition was changed linearly to 20% organic phase over the next 0.25 min. The composition was then brought to 100% organic over 1.25 min, held for 0.5 min and finally shifted to the initial composition and held constant until the end of the run for column equilibration. The total run time was 4 min and sample injection volume was 2.5 μL. The mass spectrometer was operated in the multiple reaction monitoring (MRM) mode. Sample introduction and ionization was by electrospray ionization (ESI) in the positive ion mode. DTG, RPV and CAB were analysed at mass-to-charge ratios of […] respectively. Stock solutions of DTG, RPV, CAB, and an internal standard maraviroc were prepared in methanol at a concentration of 500 μg/mL. A ten-point calibration curve was prepared ranging from 2.5–5000 ng/mL. Quality control samples were prepared in a similar procedure using an independent stock solution at three concentrations (5, 50 and 500 ng/mL). […]

[4] = humans receiving the usual oral dose; stated by Reviewer 1, no reference; cited from earlier work
[5] = set-up: method as in ref 58 (a number printed in a supplementary file, which may have a reference list of its own: not looked up in the article's list); conditions: cited from earlier work
[6] = tested on: HIV reference strain NL4-3; set-up: method as in ref 46,55–57 (a number printed in a supplementary file, which may have a reference list of its own: not looked up in the article's list); conditions: wild-type virus; cited from earlier work
[7] = tested on: drug-resistant HIV strains; conditions: cited from earlier work
[8] = pig, in vivo, po; cited from earlier work
[9] = immediate release formulation, pigs
[10] = immediate release formulation, pigs, n = 3

stability in SGF [1]: stable | stability at elevated temperature [2]: stable | Tmax [3, 9]: 6 h | average peak plasma concentration, fold lower than immediate release ([3]; gastric resident system vs immediate release, pigs): ~ 2.5 fold | average (sustained) plasma drug concentrations throughout the week following dosing ([3]; gastric resident system, pigs, n = 3): 200 to 500 ng/mL | duration of sustained drug concentrations ([3]; gastric resident system): up to 1 week | day at or after which no drug was detected in plasma [3, 9]: 3 days | time for which drug was detectable in plasma [3, 9]: up to 2 days | average maximum plasma concentration [3, 10]: ~1400 ng/mL
Structure (SMILES): C[C@H]1CO[C@@H]2Cn3cc(C(=O)NCc4ccc(F)cc4F)c(=O)c(O)c3C(=O)N12 [CAB, cabotegravir]
usual Cmax in humans [4]: 2800 ng/mL

Structure (SMILES): Cc1cc(/C=C/C#N)cc(C)c1Nc1ccnc(Nc2ccc(C#N)cc2)n1 [RPV, rilpivirine]
stability in SGF [1]: stable | stability at elevated temperature [2]: stable | Tmax ([3]; 175 mg, gastric resident dosage form, pigs): 24 h | maintenance of plasma concentrations ([3]; gastric resident dosage form, pigs, entirety of the study): comparable to the Cmax were maintained for the entirety of the study | duration of sustained drug concentrations ([3]; gastric resident system): up to 1 week | time for plasma concentration to drop below the limit of detection [3, 9]: ≤ 2 days | average maximum plasma concentration [3, 10]: ~25 ng/mL | Half-life, τ1/2 [5]: 50 h | Cmax ([5]; maximum plasma concentration at steady state, perfect adherence): 510 nM | IC50 [6]: 105 nM | m (slope parameter of Hill curve) [6]: 1.83 | Fold change in IC50 (ρ) ([7]; mutation E138K/M184I): 3.20 | Fold change in IC50 (ρ) ([7]; mutation E138K/M230L): 22.60 | Fold change in IC50 (ρ) ([7]; mutation E138K): 2.30 | Fold change in IC50 (ρ) ([7]; mutation K101E/E138K): 3.20 | Fold change in IC50 (ρ) ([7]; mutation K101E/M184I): 5.80 | Fold change in IC50 (ρ) ([7]; mutation K101E): 3.00 | Fold change in IC50 (ρ) ([7]; mutation K101P): 102.13 | Fractional change in slope (σ) ([7]; mutation K101P): -0.21 | Fold change in IC50 (ρ) ([7]; mutation K103N): 1.23 | Fractional change in slope (σ) ([7]; mutation K103N): 0.12 | Fold change in IC50 (ρ) ([7]; mutation M184I): 1.50 | Fold change in IC50 (ρ) ([7]; mutation M230L): 3.40 | Fold change in IC50 (ρ) ([7]; mutation Y181C/Y188L): 30.20 | Fold change in IC50 (ρ) ([7]; mutation Y181C): 1.72 | Fractional change in slope (σ) ([7]; mutation Y181C): -0.48 | Fold change in IC50 (ρ) ([7]; mutation Y181I): 152.91 | Fractional change in slope (σ) ([7]; mutation Y181I): -0.10 | Fold change in IC50 (ρ) ([7]; mutation Y181V): 31.00 | Fold change in IC50 (ρ) ([7]; mutation Y188L): 6.00 | usual Cmax in humans [4]: 200 ng/mL

Structure (SMILES): CC(C)OC(=O)[C@H](C)N[P@](=O)(CO[C@H](C)Cn1cnc2c(N)ncnc21)Oc1ccccc1 [TAF, tenofovir alafenamide]
drug remaining stable ([1]; after 10 h of incubation in SGF, 37 °C): 10%

Structure (SMILES): C[C@]12C=CC(=O)C=C1CC[C@@H]1[C@@H]2[C@@H](O)C[C@@]2(C)[C@H]1CC[C@]2(O)C(=O)CO [prednisolone]
concentrations achieved in pigs relative to those observed in humans [8]: about one tenth

From paper PMC5760734, “Development of an oral once-weekly drug delivery system for HIV antiretroviral therapy” (Nature Communications, 2018)
